We go through two molecules from patent publication US7875587B2, “Peptide analogues of GIP for treatment of diabetes, insulin resistance and obesity” (UUTECH Limited, priority 2004, dated 2011).

No end group written: not given here.

The target of assay [1] is T1, human GIP receptor (Homo sapiens, UniProt P48546).
T1 construct: expressed in transfected cells; host or cells: Chinese hamster lung (CHL) fibroblasts, stably transfected
T1 sequence (P48546 22-466): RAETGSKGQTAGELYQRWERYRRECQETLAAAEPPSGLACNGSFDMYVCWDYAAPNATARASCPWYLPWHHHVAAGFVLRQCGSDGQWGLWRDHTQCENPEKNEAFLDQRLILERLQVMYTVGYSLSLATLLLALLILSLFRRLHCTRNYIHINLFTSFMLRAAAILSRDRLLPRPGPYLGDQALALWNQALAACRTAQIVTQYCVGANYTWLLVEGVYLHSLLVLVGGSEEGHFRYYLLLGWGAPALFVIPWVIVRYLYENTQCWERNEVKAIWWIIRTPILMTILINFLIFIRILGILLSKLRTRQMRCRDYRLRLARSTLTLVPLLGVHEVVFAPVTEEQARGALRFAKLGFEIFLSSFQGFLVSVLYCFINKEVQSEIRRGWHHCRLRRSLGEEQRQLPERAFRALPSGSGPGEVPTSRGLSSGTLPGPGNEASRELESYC
As to the kind of experiment: Intracellular cyclic AMP production in GIP-receptor transfected CHL fibroblasts. The format is cell-based. As for the experimental part:
In vitro biological activity. […] In brief, CHL cells were seeded into 12-well plates (Nünc, Roskilde, Denmark) at a density of 10^5 cells per well and allowed to grow for 48 hours before being loaded with tritiated adenine (2 μCi; TRK311; Amersham, Buckinghamshire, UK). The cells were then incubated at 37° C. for 6 hours in 1 ml DMEM supplemented with 0.5% (w/v) BSA and subsequently washed twice with HBS buffer (pH 7.4). […] The medium was subsequently removed and the cells lysed with 1 ml of 5% TCA containing 0.1 mmol/l unlabelled cyclic AMP and 0.1 mmol/l unlabelled ATP.

Assay [2] addresses T1, human GIP receptor. The assay is described as follows: GIP-stimulated cyclic AMP generation in GIP receptor transfected CHL cells (antagonism). The assay is classed as cell-based. Conditions: in the presence of native GIP (10^-7 M). As for the experimental part: Tissue culture. Chinese hamster lung (CHL) fibroblast cells stably transfected with the human GIP receptor were cultured in DMEM tissue culture medium containing 10% (v/v) foetal bovine serum, 1% (v/v) antibiotics (100 U/ml penicillin, 0.1 mg/ml streptomycin). BRIN-BD11 cells were cultured using RPMI-1640 tissue culture medium containing 10% (v/v) foetal bovine serum, 1% (v/v) antibiotics (100 U/ml penicillin, 0.1 mg/ml streptomycin). Cells were maintained in sterile tissue culture flasks (Corning Glass Works, Sunderland, UK) at 37° C. in an atmosphere of 5% CO2 and 95% air using an LEEC incubator (Laboratory Technical Engineering, Nottingham, UK).
Acute studies of cyclic AMP generation. GIP receptor transfected CHL cells were seeded into 12-well plates (Nunc, Roskilde, Denmark) at a density of 1.0×10^5 cells per well. The cells were then allowed to grow for 48 hours before being loaded with tritiated adenine (2 μCi; TRK311, Amersham, Buckinghamshire, UK) and incubated at 37° C. for 6 hours in 1 ml DMEM, supplemented with 0.5% (w/v) […]. The cells were then washed twice with HBS buffer (130 mM NaCl, 20 mM HEPES, 0.9 mM NaHPO4, 0.8 mM MgSO4, 5.4 mM KCl, 1.8 mM CaCl2, 25 mM glucose, 25 μM phenol red, pH 7.4). […]

The subject of assay [3] is obese diabetic ob/ob mice. The assay is described as follows: Acute in vivo effects of (Pro3)GIP in obese diabetic ob/ob mice. Also on record: species or system mouse. On the procedure: Acute in vivo effects of (Pro^3)GIP administration in obese diabetic ob/ob mice. Plasma glucose and insulin responses were evaluated using 8- to 12-week old obese diabetic ob/ob mice following intraperitoneal (i.p.) injection of native GIP, (Pro^3)GIP (25 nmol/kg body weight) or saline (0.9% (w/v) NaCl; control) immediately following the combined injection of GIP (25 nmol/kg body weight) with glucose (18 mmol/kg body weight). All test solutions were administered in a final volume of 8 ml/kg body weight. Blood samples were collected from the cut tip of the tail of conscious mice into chilled fluoride/heparin microcentrifuge tubes (Sarstedt, Numbrecht, Germany) immediately prior to injection and at 15, 30 and 60 minutes post injection. Blood samples were immediately centrifuged using a Beckman microcentrifuge (Beckman Instruments, UK) for 30 seconds at 13000 g and stored at −20° prior to glucose and insulin determinations.
Acute in vivo effects of (Pro^3)GIP on plasma glucose and insulin responses to feeding in obese diabetic ob/ob mice. Plasma glucose and insulin responses were evaluated using 8- to 12-week old ob/ob mice where food was withdrawn for an 18-hour period prior to intraperitoneal injection of saline (0.9% (w/v) NaCl; control) or (Pro^3)GIP (25 nmol/kg body weight). Following injection, the mice were allowed to re-feed for 15 minutes. Blood samples were collected from the cut tip of the tail of conscious mice into chilled fluoride/heparin microcentrifuge tubes (Sarstedt, Numbrecht, Germany) immediately prior to injection and at 15, 30, 60 and 120 minutes post injection. Blood samples were immediately centrifuged using a Beckman microcentrifuge (Beckman Instruments, UK) for 30 seconds at 13000 g and stored at −20° prior to glucose and insulin determinations.
Determination of HbA1c, plasma glucose and insulin concentrations. HbA1c was measured in whole blood by ion-exchange high-performance liquid chromatography using the Menari HA-8140 kit (BIOMEN, Berkshire, UK). Plasma glucose was assayed by an automated glucose oxidase procedure using a Beckman Glucose Analyzer II (Stevens, J. F., 1971, Clinica Chemica Acta 32:199-201) and plasma insulin was determined by RIA (Flatt, P. R. et al., 1981, Diabetologia 20:573-577). Incremental areas under plasma glucose and insulin curves (AUC) were calculated using a computer generated program (CAREA) employing the trapezoidal rule (Burington, R. S., 1973, Handbook of Mathematical Tables and Formulae, New York, McGraw Hill) with baseline subtraction.

[4] abbreviates: 25 nmol/kg i.p., 15 min re-feeding after 18 h fast.

One may read the EC50 as the concentration needed to bring the measured effect to its halfway point. Lower therefore signals a more potent agent. Turning to `CCCCCCCCCCCCCCCC(=O)NCCCC[C@H](NC(=O)[C@H](Cc1c[nH]c2ccccc12)NC(=O)[C@H](CC(=O)O)NC(=O)[C@H](CC(N)=O)NC(=O)[C@H](CCCCN)NC(=O)[C@H](CCCCN)NC(=O)CNC(=O)[C@H](CCCCN)NC(=O)[C@H](CCC(N)=O)NC(=O)[C@H](C)NC(=O)[C@H](CC(C)C)NC(=O)[C@H](CC(C)C)NC(=O)[C@H](Cc1c[nH]c2ccccc12)NC(=O)[C@H](CC(N)=O)NC(=O)[C@@H](NC(=O)[C@H](Cc1ccccc1)NC(=O)[C@H](CC(=O)O)NC(=O)[C@H](CCC(N)=O)NC(=O)[C@H](CCC(N)=O)NC(=O)[C@H](Cc1c[nH]cn1)NC(=O)[C@@H](NC(=O)[C@H](CCCCN)NC(=O)[C@H](CC(=O)O)NC(=O)[C@H](CCSC)NC(=O)[C@H](C)NC(=O)[C@@H](NC(=O)[C@H](CO)NC(=O)[C@H](Cc1ccc(O)cc1)NC(=O)[C@H](CC(=O)O)NC(=O)[C@H](CO)NC(=O)[C@@H](NC(=O)[C@H](Cc1ccccc1)NC(=O)[C@@H](NC(=O)CNC(=O)[C@H](CCC(=O)O)NC(=O)[C@H](C)NC(=O)[C@H](Cc1ccc(O)cc1)NC(C)=O)[C@@H](C)O)[C@@H](C)CC)[C@@H](C)CC)[C@@H](C)CC)C(C)C)C(=O)N[C@@H](Cc1c[nH]cn1)C(=O)N[C@@H](CC(N)=O)C(=O)N[C@H](C(=O)N[C@H](C(=O)N[C@@H](CCC(N)=O)C(=O)O)[C@@H](C)O)[C@@H](C)CC` [N-AcGIP(LysPAL^37)], it took 13 nM to reach a half-maximal effect on human GIP receptor [1] (EC50).
For “YAPGTFISDYSIAMDKIHQQDFVNWLLAQKGKKNDWKHNITQ [(Pro^3)GIP]”, the “inhibition of GIP-stimulated cyclic AMP production” value on human GIP receptor [2] is recorded as “inhibited in dose-dependent fashion”. Further, the “antagonism of insulin-releasing action of GIP and improvement of glucose tolerance” value in assay [3] (25 nmol/kg i.p. with GIP 25 nmol/kg and glucose 18 mmol/kg) was “completely antagonised”. Further, the “glycemic excursion compared with glucose alone” value in assay [3] (25 nmol/kg i.p. with GIP and glucose) is “worse than when glucose was administered alone”. Besides, in assay [3] (setting [4]), the “glycemic excursion after feeding” value is on record as “worsened” and the “insulin response to feeding” value was “decreased”.
